Measured values from ChEMBL document CHEMBL3046911, “Serotonin transporter activity of imidazolidine-2,4-dione and imidazo[2,1-f]purine-2,4-dione derivatives in aspect of their acid-base properties” (Med Chem Res, 2012).

Assay: physchem

Structure (SMILES)	pKa
O=C1NC2(CCc3ccccc32)C(=O)N1CCCN1CCN(c2ccccc2)CC1 (configuration not stated)	10.5
COc1ccccc1N1CCN(CCCN2C(=O)NC3(CCc4ccccc43)C2=O)CC1 (configuration not stated)	9.6
O=C1NC2(CCCc3ccccc32)C(=O)N1CCCN1CCN(c2cccc(Cl)c2)CC1 (configuration not stated)	10.8
O=C1NC2(CCCc3ccccc32)C(=O)N1CCCN1CCN(c2ccccc2)CC1 (configuration not stated)	10.6
COc1ccccc1N1CCN(CCCN2C(=O)NC3(CCCc4ccccc43)C2=O)CC1 (configuration not stated)	10.3
O=C1NC2(CCc3ccccc32)C(=O)N1CCCN1CCN(c2cccc(Cl)c2)CC1 (configuration not stated)	10.3
Cc1cn2c3c(=O)n(C)c(=O)n(C)c3nc2n1CCCN1CCN(c2cccc(Cl)c2Cl)CC1	7.61
Cc1cn2c3c(=O)n(C)c(=O)n(C)c3nc2n1CCCN1CCc2ccccc2C1	8.66
Cn1c(=O)c2c(nc3n(CCCN4CCc5ccccc5C4)c(-c4ccccc4)cn23)n(C)c1=O	10.4
O=C1NC2(CCc3ccccc32)C(=O)N1CCCN1CCN(c2cccc(C(F)(F)F)c2)CC1 (configuration not stated)	9.96
O=C1NC2(CCc3ccccc32)C(=O)N1CCCN1CCc2ccccc2C1 (configuration not stated)	10.9
O=C1NC2(CCCc3ccccc32)C(=O)N1CCCN1CCN(c2cccc(C(F)(F)F)c2)CC1 (configuration not stated)	11.1
O=C1NC2(CCCc3ccccc32)C(=O)N1CCCN1CCc2ccccc2C1 (configuration not stated)	10.9
COc1ccccc1N1CCN(CCCn2c(-c3ccccc3)cn3c4c(=O)n(C)c(=O)n(C)c4nc23)CC1	8.44
COc1ccccc1N1CCN(CCCn2ccn3c4c(=O)n(C)c(=O)n(C)c4nc23)CC1	8.19
Cn1c(=O)c2c(nc3n(CCCN4CCN(c5ccccc5)CC4)c(-c4ccccc4)cn23)n(C)c1=O	8.79
Cn1c(=O)c2c(nc3n(CCCN4CCN(c5cccc(Cl)c5)CC4)ccn23)n(C)c1=O	8.35
Cc1cn2c3c(=O)n(C)c(=O)n(C)c3nc2n1CCCN1CCN(c2cccc(Cl)c2)CC1	8.12
Cn1c(=O)c2c(nc3n(CCCN4CCN(c5cccc(Cl)c5)CC4)c(-c4ccccc4)cn23)n(C)c1=O	10.6
Cn1c(=O)c2c(nc3n(CCCN4CCN(c5ccccc5)CC4)ccn23)n(C)c1=O	8.09
Cc1cn2c3c(=O)n(C)c(=O)n(C)c3nc2n1CCCN1CCN(c2ccccc2)CC1	7.55
COc1ccccc1N1CCN(CCCn2c(C)cn3c4c(=O)n(C)c(=O)n(C)c4nc23)CC1	7.61
